This assay concerns the target T1, Recombinant Human Prolyl Oligopeptidase/PREP (Homo sapiens, UniProt P48147).
T1 construct: purchased R&D Systems 4308-SE-010
T1 sequence (P48147 1-710): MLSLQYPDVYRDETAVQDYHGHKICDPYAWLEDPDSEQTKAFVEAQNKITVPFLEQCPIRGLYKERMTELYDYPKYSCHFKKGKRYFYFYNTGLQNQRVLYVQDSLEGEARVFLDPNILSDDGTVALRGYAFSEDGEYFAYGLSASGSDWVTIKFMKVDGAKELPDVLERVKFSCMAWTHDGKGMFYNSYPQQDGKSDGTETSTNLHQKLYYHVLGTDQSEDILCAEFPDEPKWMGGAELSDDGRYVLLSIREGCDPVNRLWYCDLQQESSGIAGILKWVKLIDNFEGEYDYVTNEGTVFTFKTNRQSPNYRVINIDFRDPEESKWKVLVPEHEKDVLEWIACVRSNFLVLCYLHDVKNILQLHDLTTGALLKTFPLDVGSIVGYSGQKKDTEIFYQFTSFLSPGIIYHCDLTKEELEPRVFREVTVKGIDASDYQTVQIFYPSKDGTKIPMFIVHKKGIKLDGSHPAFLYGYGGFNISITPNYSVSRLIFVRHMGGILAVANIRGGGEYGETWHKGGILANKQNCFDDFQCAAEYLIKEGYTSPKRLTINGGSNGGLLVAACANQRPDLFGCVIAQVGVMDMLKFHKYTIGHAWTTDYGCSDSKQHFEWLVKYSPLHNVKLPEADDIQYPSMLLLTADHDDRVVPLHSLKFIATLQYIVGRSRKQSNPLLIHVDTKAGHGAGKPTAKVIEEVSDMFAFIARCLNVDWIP
The experiment in a line: Kinetic evaluation of substrates. It counts as biochemical. To be noted: for SI (selectivity index, coefficient of the proteases kcat/Km), FAPα vs PREP: kcat/KM FAPα over kcat/KM PREP. The method, then: Fluorogenic Substrate Cleavage Assay
The following proteases were used for the activity assay: Recombinant Human FAPα Protein, CF (R&D Systems, Catalog No.: 3715-SE-010), Recombinant Human Prolyl Oligopeptidase/PREP Protein, CF (R&D Systems, Catalog No.: 4308-SE-010). Recombinant Human DPP9 Protein, CF (R&D Systems, Catalog No.: 5419-SE-010). Recombinant Human DPP4 Protein (Sino Biological, Catalog No.: 10688-HNCH-10). The buffers used for the activity assay were: FAPα - 50 mM Tris, 1 M NaCl, 1 mg/mL BSA, pH 7.5, PREP- 25 mM Tris, 250 mM NaCl, 2.5 mM DTT, pH 7.5 (DTT was freshly added immediately before use), DPP9- 25 mM Tris, pH 7.5, DPP4- 25 mM Tris, pH
7.5. The following commercial substrates were used: zGP-AMC (Bachem,Catalog No.: […]
conducted in Greiner Bio-One black microplates of 384 wells and polystyrene F-bottom (Catalog No.: 784076). All compounds were dissolved in DMSO at a concentration of 10 mM and then diluted into the respective buffer to the desired final concentration. The protease was added to the specified concentration before the fluorescence measurements. For fluorescence measurements, 2 μL of substrate was further diluted into 6 μL of buffer, followed by addition of 2 μL of enzyme in buffer. For no enzyme controls 2 μL of substrate was diluted into 8 μL of buffer.
The fluorescence was measured using a Cytation 3 plate reader (BioTek). All experiments have at least three technical replicates. All assays were conducted at 37°C for a minimum of 90 min, unless otherwise noted. Fluorescence measurements were performed at ex/em, 355/460 nm for ACC substrates. The substrates velocity was quantified by calculating the slope of the linear phase of the reaction as relative fluorescence units (RFU) per min.
Kinetic evaluation of substrates
To order to determine the kcat/KM, the previously indicated proteases were tested under their corresponding buffer conditions. Substrates were serially diluted in water, and 2 µL of each dilution was added to 6 µL of assay buffer in a 384-well plate. The plate was briefly centrifuged to ensure proper mixing and to eliminate air bubbles. Fluorescence measurements were initiated by adding 2 µL of the protease solution (prepared in activity buffer) to each well, yielding a final volume of 10 µL. Reactions were monitored at 37 °C for 60 minutes using a plate reader set to excitation/emission wavelengths of 355/460 nm. Control wells without enzyme contained 8 µL of assay buffer, instead of enzyme, and 2 µL of substrate. All measurements were performed in at least triplicate. The initial linear portion of each fluorescence progress curve was used to calculate initial reaction velocities (RFU/min). Calibration curves using free AMC were generated under the corresponding buffer and assay conditions to allow extrapolation of RFU values to µM concentrations. Michaelis-Menten kinetic parameters K M, kcat and kcat/,KM were determined using […]
GraphPad Prism version 10.4.1. […]
determined due to poor model fit. […]

Where [1] appears, read: 3 nM PREP, 37 °C, 60 min, Michaelis-Menten fit, triplicates.

*1 amine or outer side, *2 acyl side, *3 side chain or, on linkers, in order; H or OH if unused. Where a SMILES comes first, the peptide text is derived from it. Bridges are numbered along the chain shown (N, C = ends). The star is where a group is joined. X1 = NC(=O)Cc1cc(=O)oc2cc(NC(=O)[C@@H]3CCCN3C(=O)Cn3nc(C[*:1])cc3C[*:2])ccc12; X2 = NC(=O)Cc1cc(=O)oc2cc(NC(=O)[C@@H]3CCCN3C(=O)Cn3nc(C[*:2])cc3C[*:1])ccc12; AMC = Cc1cc(=O)oc2cc(N*)ccc12; Cbz = O=C(OCc1ccccc1)*

Turning to `CC(C)C[C@@H]1NC(=O)[C@H](CC(N)=O)NC(=O)[C@H](CCC(N)=O)NC(=O)[C@H](Cc2ccccc2)NC(=O)[C@H](CO)NC(=O)[C@H](C(C)C)NC(=O)[C@@H](N)CSCc2cc(nn2CC(=O)N2CCC[C@H]2C(=O)Nc2ccc3c(CC(N)=O)cc(=O)oc3c2)CSC[C@@H](C(=O)NCC(N)=O)NC(=O)[C@H](CC(=O)O)NC1=O` [FAP-33.2] (H-CVSFQNLDCG-NH2; linker 1-9 via X2; N-terminus assumed), the “SI (selectivity index, coefficient of the proteases kcat/Km), FAPα vs PREP” value is reported as “FAPα >>>PREP”.

Turning to `Cc1cc(=O)oc2cc(NC(=O)[C@@H]3CCCN3C(=O)CN)ccc12` [GP-AMC] (H-Gly-Pro-{AMC}), the “SI (selectivity index, coefficient of the proteases kcat/Km), DPP4 vs PREP” value (kcat/KM DPP4 over kcat/KM PREP) was “DPP4>>>PREP”.

A word on the Km: it is the concentration of substrate that gives half-maximal velocity. The term kcat denotes the number of substrate molecules converted per active site and unit of time at saturation. One may read the kcat/KM as the second-order rate constant that governs catalysis at low substrate concentration. Regarding `Cc1cc(=O)oc2cc(NC(=O)[C@@H]3CCCN3C(=O)CNC(=O)OCc3ccccc3)ccc12` [zGP-AMC] (Cbz-Gly-Pro-{AMC}), the “SI (selectivity index, coefficient of the proteases kcat/Km), FAPα vs PREP” value turned out to be 0.24. Further, for the setting “3 nM PREP, 25 mM Tris, 250 mM NaCl, 2.5 mM DTT, pH 7.5, 37 °C, 60 min, triplicates, ± SD, FAP33.2 and FAP33.2A6 showed substrate inhibition”, the Km was 161 ± 91 µM. Also, under setting [1], the kcat amounted to 113.05 s⁻¹ and the kcat/KM was 633723 M⁻¹ s⁻¹.

For the compound `CC(C)[C@@H]1NC(=O)[C@@H](N)CSCc2cc(n(CC(=O)N3CCC[C@H]3C(=O)Nc3ccc4c(CC(N)=O)cc(=O)oc4c3)n2)CSC[C@@H](C(=O)NCC(N)=O)NC(=O)[C@H](CC(=O)O)NC(=O)[C@H](C)NC(=O)[C@H](CC(N)=O)NC(=O)[C@H](CCC(N)=O)NC(=O)[C@H](Cc2ccccc2)NC(=O)[C@H](CO)NC1=O` [FAP-33.2A6] (H-CVSFQNADCG-NH2; linker 1-9 via X1; N-terminus assumed), the “SI (selectivity index, coefficient of the proteases kcat/Km), FAPα vs PREP” value is listed as “FAPα >>>PREP”. In addition, for the setting “3 nM PREP, substrate inhibition, 37 °C”, the Ki came out at 34.4 µM.

For the origin of these results see PMC12314892, “Macrocyclic Phage Display for Identification of Selective Protease Substrates” (Journal of the American Chemical Society, 2025).
